According to US20250381198A1 (Melt Pharmaceuticals, Inc., priority 2024, published 2025):

Tests used:
[1] = system: subjects undergoing cataract extraction with lens replacement (CELR); test: Phase 3: rescue sedation medication use preoperatively and intraoperatively; assay type: in vivo, human
Text: A secondary analysis of rescue sedation medication use (both preoperatively and intraoperatively) for the ITT analysis set is shown in TABLE 51.

[2] = system: subjects undergoing cataract extraction with lens replacement (CELR); test: Phase 3: patient satisfaction (5-point Likert scale); assay type: in vivo, human; parameters: key to Patient Satisfaction Scores, Min / Patient Satisfaction Scores, Max: 5=very satisfied; 4=satisfied; 3=neither satisfied nor dissatisfied; 2=dissatisfied; 1=very dissatisfied; conditions: ITT analysis set
Experimental: Patient satisfaction with the operative experience was measured at the Follow-Up visit using a 5-point Likert scale (5=very satisfied; 4=satisfied; 3=neither satisfied nor dissatisfied; 2=dissatisfied; 1=very dissatisfied). […] The means were compared using 2-sample t-tests and the Satterthwaite method. The proportion of satisfied responses (‘Very Satisfied’ or ‘Satisfied’, pooled) were tested using a Pearson's chi-square test; and a Fisher's exact test was used instead if any expected values were <5.

[3] = ITT Analysis Set, number of subjects

For `Cc1ncc2n1-c1ccc(Cl)cc1C(c1ccccc1F)=NC2` [Midazolam, 8-chloro-6-(2-fluorophenyl)-1-methyl-4H-imidazo[1,5-a][1,4]benzodiazepine], the “Received intraoperative rescue sedation medication - %” value ([1]; ITT Analysis Set) was 16.9%, the “Received preoperative rescue sedation medication - %” value ([1]; ITT Analysis Set) was 18.0% and the “Received intraoperative rescue sedation medication - n” value [1, 3] was 15. The “Received preoperative rescue sedation medication - n” value [1, 3] was 16, the “Subjects who received intraoperative rescue sedation medication” value ([1]; ITT analysis set) was 16.9% and the “Subjects who received preoperative rescue sedation medication” value ([1]; ITT analysis set) was 18.0%. For the same compound, the “Patient Satisfaction Scores, Max” value ([2]; 5-point Likert scale) was 5, the “Patient Satisfaction Scores, Mean ± SD” value ([2]; 5-point Likert scale) was 4.8 ± 0.55 and the “Patient Satisfaction Scores, Median” value ([2]; 5-point Likert scale) was 5.0. The “Patient Satisfaction Scores, Min” value ([2]; 5-point Likert scale) was 2 and the “Patient Satisfaction Score 1 = Very Dissatisfied” value [2] was 0 n.
